Laboratory results from US20090099195A1 (ASTRAZENECA AB, priority 2007, published 2009).

Legend:
[1] = biological target: T1, hP2X3 (human Purinergic P2X receptors subtype 3), clone B (Homo sapiens, UniProt P56373); assay: hP2X3 FLIPR calcium (Fluo-4) antagonist assay, clone B; settings: Human P2X3 FLIPR Clone B IC50 (nM), RLE cells expressing hP2X3 clone B (NM_002559); agonist 500 nM α,β-methylene-ATP
T1 sequence (P56373 1-397): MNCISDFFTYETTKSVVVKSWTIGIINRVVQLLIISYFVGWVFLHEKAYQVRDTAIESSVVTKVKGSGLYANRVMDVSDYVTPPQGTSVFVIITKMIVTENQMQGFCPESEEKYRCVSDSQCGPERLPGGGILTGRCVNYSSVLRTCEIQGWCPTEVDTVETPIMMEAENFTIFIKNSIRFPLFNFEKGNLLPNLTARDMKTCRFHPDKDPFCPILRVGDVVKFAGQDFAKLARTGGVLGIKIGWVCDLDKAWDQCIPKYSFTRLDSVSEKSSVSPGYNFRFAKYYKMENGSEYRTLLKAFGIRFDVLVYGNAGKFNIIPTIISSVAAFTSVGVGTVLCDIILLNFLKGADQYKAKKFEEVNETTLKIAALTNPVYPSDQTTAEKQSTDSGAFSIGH

[2] = biological target: T2, rat P2X2/3 (rat P2X3 co-expressed with rat P2X2) (Rattus norvegicus, UniProt P49653+P49654); assay: rat P2X2/3 FLIPR calcium (Fluo-4) antagonist assay; settings: Rat P2X2/3 FLIPR Mean IC50 (nM), HEK-TREX cells, tetracycline-induced rat P2X3 with constitutive rat P2X2; agonist 500 nM α,β-methylene-ATP
T2 sequence (P49654 1-397): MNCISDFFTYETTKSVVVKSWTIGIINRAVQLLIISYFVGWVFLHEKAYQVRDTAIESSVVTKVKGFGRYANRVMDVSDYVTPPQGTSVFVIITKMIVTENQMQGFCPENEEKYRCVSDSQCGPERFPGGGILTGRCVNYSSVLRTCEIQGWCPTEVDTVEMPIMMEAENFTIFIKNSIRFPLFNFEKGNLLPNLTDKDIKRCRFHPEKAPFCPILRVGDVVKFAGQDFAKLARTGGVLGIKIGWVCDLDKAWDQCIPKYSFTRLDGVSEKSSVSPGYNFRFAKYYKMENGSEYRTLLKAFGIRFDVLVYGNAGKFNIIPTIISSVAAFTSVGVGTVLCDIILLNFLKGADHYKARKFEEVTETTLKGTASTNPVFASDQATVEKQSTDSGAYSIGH
T2 sequence (P49653 1-472): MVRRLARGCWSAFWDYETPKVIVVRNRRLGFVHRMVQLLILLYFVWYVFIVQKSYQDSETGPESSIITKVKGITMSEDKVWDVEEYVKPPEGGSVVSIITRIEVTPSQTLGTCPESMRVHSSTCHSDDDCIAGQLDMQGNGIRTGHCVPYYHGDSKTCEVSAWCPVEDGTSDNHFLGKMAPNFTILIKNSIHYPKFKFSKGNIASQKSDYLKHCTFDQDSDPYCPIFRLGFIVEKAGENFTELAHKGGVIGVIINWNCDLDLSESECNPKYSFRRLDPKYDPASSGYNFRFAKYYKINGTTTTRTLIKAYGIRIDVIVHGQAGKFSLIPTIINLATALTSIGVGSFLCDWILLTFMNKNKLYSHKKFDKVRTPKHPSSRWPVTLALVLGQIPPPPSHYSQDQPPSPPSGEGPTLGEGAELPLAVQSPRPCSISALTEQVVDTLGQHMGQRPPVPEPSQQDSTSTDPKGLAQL
Description: The assay used a calcium indicator dye (Fluo-4) that emits fluorescence, the intensity of which is related to the concentration of calcium that entered the cell when P2X3 was activated and the channel opened. Activation of hP2X3 or rat P2X3 and rat P2X2/3 (from the coexpression of rat P2X3 and rat P2×2) is elicited the by P2X3 agonist α,β methylene-ATP (Sigma M6517), and the resulting fluorescence is measured with a FLIPR II™ instrument (Molecular Devices). Compounds are tested for their ability to inhibit the agonist-induced fluorescent signal.
For the rat P2X2/3 HEK-TREX cells, induction of the rat P2X3 expression is used to generate the rat P2X2/3 channels in HEK-TREX cells and performed by addition of 1 μg/mL tetracycline (Invitrogen) 24 h prior to compounds testing to the HEK-TREX expressing the rat P2X2 constitutively. On the day of the experiment, the cells and test compounds are prepared as follows. […] After preparing the compounds, the medium is removed from the cell plates by inversion. A loading solution of 30 μL assay buffer containing 4 μM of the calcium indicator dye FLUO-4 AM (Molecular Probes F14202) is added to each well using a Multidrop (Labsystems). […] The incubation is terminated by washing the cells four times in assay buffer using a Skatron Embla (Molecular Devices), and 25 μL of assay buffer was left in each well. Cell plates are then transferred to the FLIPR. Experiments are initiated by measuring a baseline fluorescence reading for 10 seconds, followed by the addition of 12.5 μL of cpds and data sampling for a total 280 seconds. The experiments are terminated by addition of 12.5 μL of a reference agonist (500 nM α,β-methylene-ATP) or buffer, producing a final assay volume of 50 μL followed by data sampling for an additional 280 seconds.
In P2X3 antagonist experiments (human and rat assays) data are analysed as normalised maximal peak fluorescence monitored following agonist addition and calculated as percent of relative fluorescent counts from control agonist. The dose-response antagonist inhibition curves are analyzed in a 4-parameter sigmoidal fit using a non-linear curve-fitting program (XLfit version 5.0.6, ID Business Solutions Limited, Guildford, UK).

| IC50 [1] [nM] | IC50 [2] [nM] | SMILES |
| --- | --- | --- |
| 45 | 4800 | CC(=O)N1CCN(c2nc(NCc3cc(-c4ccccc4)on3)c3c(n2)C(=O)N(C(C)C)C3)CC1 [Example 144, 4-(4-acetylpiperazin-1-yl)-2-[(5-phenyl-1,2-oxazol-3-yl)methylamino]-8-propan-2-yl-3,5,8-triazabicyclo[4.3.0]nona-1,3,5-trien-7-one] |
| 67 | 2440 | CC(=O)N1CCN(c2nc(NCc3cnn(-c4ccccc4)c3)c3c(n2)C(=O)N(C(C)C)C3)CC1 [Example 146, 4-(4-acetylpiperazin-1-yl)-2-[(1-phenylpyrazol-4-yl)methylamino]-8-propan-2-yl-3,5,8-triazabicyclo[4.3.0]nona-1,3,5-trien-7-one] |
| 41 | 1230 | CC(=O)N1CCN(c2nc(NCc3cc(-c4ccccc4)no3)c3c(n2)C(=O)N(C(C)C)C3)CC1 [Example 147, 4-(4-acetylpiperazin-1-yl)-2-[(3-phenyl-1,2-oxazol-5-yl)methylamino]-8-propan-2-yl-3,5,8-triazabicyclo[4.3.0]nona-1,3,5-trien-7-one] |
| 160 | 6750 | CC(=O)N1CCN(c2nc(NCc3nnc(-c4ccccc4)o3)c3c(n2)C(=O)N(C(C)C)C3)CC1 [Example 148, 4-(4-acetylpiperazin-1-yl)-2-[(5-phenyl-1,3,4-oxadiazol-2-yl)methylamino]-8-propan-2-yl-3,5,8-triazabicyclo[4.3.0]nona-1,3,5-trien-7-one] |
| 56 | 2910 | CC(=O)N1CCN(c2nc(NC(C)(C)Cc3ccc(C)cc3)c3c(n2)C(=O)N(C(C)C)C3)CC1 [Example 164, 2-(4-acetylpiperazin-1-yl)-6-isopropyl-4-(2-methyl-1-p-tolylpropan-2-ylamino)-5H-pyrrolo[3,4-d]pyrimidin-7(6H)-one] |
| 43 | 11100 | CC(=O)N1CCN(c2nc(N[C@H](C)c3ccc(I)cc3)c3c(n2)C(=O)N(C(C)C)C3)CC1 [Example 165, (R)-2-(4-acetylpiperazin-1-yl)-4-(1-(4-iodophenyl)ethylamino)-6-isopropyl-5H-pyrrolo[3,4-d]pyrimidin-7(6H)-one] |
| 90 | 2180 | COc1ccc(CC(C)(C)Nc2nc(N3CCN(C(C)=O)CC3)nc3c2CN(C(C)C)C3=O)cc1 [Example 196, 2-(4-acetylpiperazin-1-yl)-6-isopropyl-4-(1-(4-methoxyphenyl)-2-methylpropan-2-ylamino)-5H-pyrrolo[3,4-d]pyrimidin-7(6H)-one] |
| 290 | 60700 | COc1cc(C(F)(F)F)ccc1CNc1nc(N2CCN(C(C)=O)CC2)nc2c1CN(C(C)C)C2=O [Example 225, 2-(4-acetylpiperazin-1-yl)-6-isopropyl-4-(2-methoxy-4-(trifluoromethyl)benzylamino)-5H-pyrrolo[3,4-d]pyrimidin-7(6H)-one] |
| 120 | 14600 | CC(=O)N1CCN(c2nc(NCc3cncc4ccccc34)c3c(n2)C(=O)N(C(C)C)C3)CC1 [Example 229, 2-(4-acetylpiperazin-1-yl)-6-isopropyl-4-(isoquinolin-4-ylmethylamino)-5H-pyrrolo[3,4-d]pyrimidin-7(6H)-one] |
| 87 | 7380 | CC(=O)N1CCN(c2nc(N[C@H](C)c3cccc(C(F)(F)F)c3)c3c(n2)C(=O)N(C(C)C)C3)CC1 [Example 230, (R)-2-(4-acetylpiperazin-1-yl)-6-isopropyl-4-(1-(3-(trifluoromethyl)phenyl)ethylamino)-5H-pyrrolo[3,4-d]pyrimidin-7(6H)-one] |
| 83 | 13800 | CC(=O)N1CCN(c2nc(NCc3ccc4ncccc4c3)c3c(n2)C(=O)N(C(C)C)C3)CC1 [Example 235, 2-(4-acetylpiperazin-1-yl)-6-isopropyl-4-(quinolin-6-ylmethylamino)-5H-pyrrolo[3,4-d]pyrimidin-7(6H)-one] |
| 65 | 10400 | CC(=O)N1CCN(c2nc(NCc3ccc4nc(C)ccc4c3)c3c(n2)C(=O)N(C(C)C)C3)CC1 [Example 242, 2-(4-acetylpiperazin-1-yl)-6-isopropyl-4-((2-methylquinolin-6-yl)methylamino)-5H-pyrrolo[3,4-d]pyrimidin-7(6H)-one] |

Further lines, the molecule ahead of its results:

| SMILES | IC50 [1] [nM] | IC50 [2] [nM] |
| --- | --- | --- |
| CC(=O)N1CCN(c2nc(NC(C)(C)Cc3ccc(F)cc3)c3c(n2)C(=O)N(C(C)C)C3)CC1C (centres unmarked) [Example 138, 2-(4-Acetyl-3-methyl-piperazin-1-yl)-4-[2-(4-fluoro-phenyl)-1,1-dimethyl-ethylamino]-6-isopropyl-5,6-dihydro-pyrrolo[3,4-d]pyrimidin-7-one] | 750 | 16200 |
| CC(C)N1Cc2c(NC(C)(C)Cc3ccc(F)cc3)nc(N3CCN4C(=O)OC[C@H]4C3)nc2C1=O [Example 140, (R)-7-{4-[2-(4-Fluoro-phenyl)-1,1-dimethyl-ethylamino]-6-isopropyl-7-oxo-6,7-dihydro-5H-pyrrolo[3,4-d]pyrimidin-2-yl}-hexahydro-oxazolo[3,4-a]pyrazin-3-one] | 1100 | 8470 |
| CC(=O)N1CCN(c2nc(NCc3cnc4ccccc4c3)c3c(n2)C(=O)N(C(C)C)C3)CC1C (centres unmarked) [Example 142, 2-(4-Acetyl-3-methyl-piperazin-1-yl)-6-isopropyl-4-[(quinolin-3-ylmethyl)amino]-5,6-dihydro-pyrrolo[3,4-d]pyrimidin-7-one] | 57 | 7550 |
| CC(=O)N1CCN(c2nc(NC(C)c3cnn(-c4ccccc4F)c3)c3c(n2)C(=O)N(C(C)C)C3)CC1 (centres unmarked) [Example 149, 4-(4-acetylpiperazin-1-yl)-2-[1-[1-(2-fluorophenyl)pyrazol-4-yl]ethylamino]-8-propan-2-yl-3,5,8-triazabicyclo[4.3.0]nona-1,3,5-trien-7-one] | 260 | 5070 |
| CC(=O)N1CCN(c2nc(NC(C)c3cnn(-c4ccccc4)c3)c3c(n2)C(=O)N(C(C)C)C3)CC1 (centres unmarked) [Example 150, 4-(4-acetylpiperazin-1-yl)-2-[1-(1-phenylpyrazol-4-yl)ethylamino]-8-propan-2-yl-3,5,8-triazabicyclo[4.3.0]nona-1,3,5-trien-7-one] | 60 | 237 |
| CCOc1ccc([C@@H](C)Nc2nc(N3CCN(C(C)=O)CC3)nc3c2CN(C(C)C)C3=O)cc1Cl [Example 159, (R)-2-(4-acetylpiperazin-1-yl)-4-(1-(3-chloro-4-ethoxyphenyl)ethylamino)-6-isopropyl-5H-pyrrolo[3,4-d]pyrimidin-7(6H)-one] | 37 | 547 |
| CC(=O)N1CCN(c2nc(N[C@H](C)c3ccc4c(c3)CCCC4)c3c(n2)C(=O)N(C(C)C)C3)CC1 [Example 166, (R)-2-(4-acetylpiperazin-1-yl)-6-isopropyl-4-(1-(5,6,7,8-tetrahydronaphthalen-2-yl)ethylamino)-5H-pyrrolo[3,4-d]pyrimidin-7(6H)-one] | 47 | 1900 |
| CC(=O)N(C)C1CCN(c2nc(NCc3cnc4ccccc4c3)c3c(n2)C(=O)N(C(C)C)C3)C1 (centres unmarked) [Example 208, N-(1-(6-isopropyl-7-oxo-4-(quinolin-3-ylmethylamino)-6,7-dihydro-5H-pyrrolo[3,4-d]pyrimidin-2-yl)pyrrolidin-3-yl)-N-methylacetamide] | 680 | 17600 |
| CC(=O)N1CCN(c2nc(N[C@H](C)c3cnc4ccccc4c3)c3c(n2)C(=O)N(C(C)C)C3)CC1 [Example 233, (R)-2-(4-acetylpiperazin-1-yl)-6-isopropyl-4-(1-(quinolin-3-yl)ethylamino)-5H-pyrrolo[3,4-d]pyrimidin-7(6H)-one] | 21 | 74.4 |
| CC(=O)N1CCN(c2nc(N[C@H](C)c3ccc4ncccc4c3)c3c(n2)C(=O)N(C(C)C)C3)CC1 [Example 243, (R)-2-(4-acetylpiperazin-1-yl)-6-isopropyl-4-(1-(quinolin-6-yl)ethylamino)-5H-pyrrolo[3,4-d]pyrimidin-7(6H)-one] | 36 | 1240 |
